Assay results taken from patent publication US9963496B2, “Stable glucagon analogues and use for treatment of hypoglycaemia” (Novo Nordisk A/S, priority 2014, dated 2018).
*1 amine or outer side, *2 acyl side, *3 side chain or, on linkers, in order; H or OH if unused. Where a SMILES comes first, the peptide text is derived from it. Side-chain parts run from the residue outwards. [ ]: non-standard residue; d: D form. The star is where a group is joined. γGlu = O=C(O)[C@H](CCC(=O)[*:2])N[*:1]; Desaminohistidyl = O=C(CCc1c[nH]cn1)*; Aib = CC(C)(N)C(=O)O

test: physchem; format: physicochemical; conditions: pH 7.5
How it was run: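 Peptide at 250 μM in 10 mM HEPES pH 7.5 with 1 μM Thioflavin T, incubated at 37° C with 960 rpm orbital shaking. ThT fluorescence (ex 444/em 485 nm) read every 20 min; lag-time (t0−2τ) and kapp (1/τ) from curve fit. Recovery is post-assay supernatant peptide by RP-HPLC as % of initial.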

In order of rising recovery at 250 μM:
1. CC(=O)N[C@@H](CCC(=O)N[C@@H](CCC(=O)N[C@@H](CCC(=O)N[C@@H](CCC(=O)NCCCC[C@H](NC(=O)[C@@H](NC(=O)[C@H](Cc1ccccc1)NC(=O)[C@H](CC(=O)O)NC(=O)[C@H](CCC(N)=O)NC(=O)[C@H](C)NC(=O)[C@H](CCCNC(=N)N)NC(=O)[C@H](CCCNC(=N)N)NC(=O)[C@@H](NC(=O)[C@H](CC(=O)O)NC(=O)[C@H](CC(C)C)NC(=O)[C@H](Cc1ccc(O)cc1)NC(=O)[C@H](CCCCN)NC(=O)[C@H](CO)NC(=O)[C@H](Cc1ccc(O)cc1)NC(=O)[C@H](CC(=O)O)NC(=O)[C@H](CO)NC(=O)[C@@H](NC(=O)[C@H](Cc1ccccc1)NC(=O)[C@@H](NC(=O)CNC(=O)[C@H](Cc1c[nH]cn1)NC(=O)C(C)(C)NC(=O)CCc1c[nH]cn1)[C@@H](C)O)[C@@H](C)O)C(C)C)C(C)C)C(=O)N[C@@H](Cc1c[nH]c2ccccc12)C(=O)N[C@@H](CC(C)C)C(=O)N[C@@H](CC(C)C)C(=O)N[C@@H](CO)C(=O)N[C@H](C(=O)O)[C@@H](C)O)C(=O)O)C(=O)O)C(=O)O)C(=O)O [Example 10, N^ϵ24-[(4S)-4-[[(4S)-4-[[(4S)-4-[[(4S)-4-acetamido-4-carboxybutanoyl]amino]-4-carboxybutanoyl]amino]-4-carboxybutanoyl]amino]-4-carboxybutanoyl]-[Imp1, Aib2, His3, Val16, Lys24, Leu27, Ser28]-Glucagon] (Desaminohistidyl-[Aib]HGTFTSDYSKYLDVRRAQDFVK([γGlu-γGlu-γGlu-γGlu-Ac])WLLST-OH)  100%
2. CC(=O)N[C@@H](CCC(=O)N[C@@H](CCC(=O)N[C@@H](CCC(=O)N[C@@H](CCC(=O)NCCCC[C@H](NC(=O)[C@H](CC(C)C)NC(=O)[C@H](CC(C)C)NC(=O)[C@H](Cc1c[nH]c2ccccc12)NC(=O)[C@H](C)NC(=O)[C@@H](NC(=O)[C@H](Cc1ccccc1)NC(=O)[C@H](CC(=O)O)NC(=O)[C@H](CCC(N)=O)NC(=O)[C@H](C)NC(=O)[C@H](CCCNC(=N)N)NC(=O)[C@H](CCCNC(=N)N)NC(=O)[C@H](CO)NC(=O)[C@H](CCC(=O)O)NC(=O)[C@H](CC(C)C)NC(=O)[C@H](Cc1ccc(O)cc1)NC(=O)[C@H](CCCCN)NC(=O)[C@H](CO)NC(=O)[C@H](Cc1ccc(O)cc1)NC(=O)[C@H](CC(=O)O)NC(=O)[C@H](CO)NC(=O)[C@@H](NC(=O)[C@H](Cc1ccccc1)NC(=O)[C@@H](NC(=O)CNC(=O)[C@H](Cc1c[nH]cn1)NC(=O)C(C)(C)NC(=O)CCc1c[nH]cn1)[C@@H](C)O)[C@@H](C)O)C(C)C)C(=O)N[C@H](C(=O)O)[C@@H](C)O)C(=O)O)C(=O)O)C(=O)O)C(=O)O [Example 4, N^ϵ28-[(4S)-4-[[(4S)-4-[[(4S)-4-[[(4S)-4-acetamido-4-carboxybutanoyl]amino]-4-carboxybutanoyl]amino]-4-carboxybutanoyl]amino]-4-carboxybutanoyl]-[Imp1, Aib2, His3, Glu15, Ala24, Leu27, Lys28]-Glucagon] (Desaminohistidyl-[Aib]HGTFTSDYSKYLESRRAQDFVAWLLK([γGlu-γGlu-γGlu-γGlu-Ac])T-OH)  100%
3. CC(=O)N[C@@H](CCC(=O)N[C@@H](CCC(=O)N[C@@H](CCC(=O)N[C@@H](CCC(=O)NCCCC[C@H](NC(=O)[C@@H](NC(=O)[C@H](Cc1ccccc1)NC(=O)[C@H](CC(=O)O)NC(=O)[C@H](CCC(N)=O)NC(=O)[C@H](C)NC(=O)[C@H](CCCNC(=N)N)NC(=O)[C@H](CCCNC(=N)N)NC(=O)[C@H](CC(C)C)NC(=O)[C@H](CC(=O)O)NC(=O)[C@H](CC(C)C)NC(=O)[C@H](Cc1ccc(O)cc1)NC(=O)[C@H](CCCCN)NC(=O)[C@H](CO)NC(=O)[C@H](Cc1ccc(O)cc1)NC(=O)[C@H](CC(=O)O)NC(=O)[C@H](CO)NC(=O)[C@@H](NC(=O)[C@H](Cc1ccccc1)NC(=O)[C@@H](NC(=O)CNC(=O)[C@H](Cc1c[nH]cn1)NC(=O)C(C)(C)NC(=O)CCc1c[nH]cn1)[C@@H](C)O)[C@@H](C)O)C(C)C)C(=O)N[C@@H](Cc1c[nH]c2ccccc12)C(=O)N[C@@H](CC(C)C)C(=O)N[C@@H](CC(C)C)C(=O)N[C@@H](CO)C(=O)N[C@H](C(=O)O)[C@@H](C)O)C(=O)O)C(=O)O)C(=O)O)C(=O)O [Example 1, N^ϵ24-[(4S)-4-[[(4S)-4-[[(4S)-4-[[(4S)-4-acetamido-4-carboxybutanoyl]amino]-4-carboxybutanoyl]amino]-4-carboxybutanoyl]amino]-4-carboxybutanoyl]-[Imp1, Aib2, His3, Leu16, Lys24, Leu27, Ser28]-Glucagon] (Desaminohistidyl-[Aib]HGTFTSDYSKYLDLRRAQDFVK([γGlu-γGlu-γGlu-γGlu-Ac])WLLST-OH)  101%
4. CC(=O)N[C@@H](CCC(=O)N[C@@H](CCC(=O)N[C@@H](CCC(=O)N[C@@H](CCC(=O)NCCCC[C@H](NC(=O)[C@@H](NC(=O)[C@H](Cc1ccccc1)NC(=O)[C@H](CCC(=O)O)NC(=O)[C@H](CCC(N)=O)NC(=O)[C@H](C)NC(=O)[C@H](CCCNC(=N)N)NC(=O)[C@H](CCCNC(=N)N)NC(=O)[C@H](CC(C)C)NC(=O)[C@H](CC(=O)O)NC(=O)[C@H](CC(C)C)NC(=O)[C@H](Cc1ccc(O)cc1)NC(=O)[C@H](CCCCN)NC(=O)[C@H](CO)NC(=O)[C@H](Cc1ccc(O)cc1)NC(=O)[C@H](CC(=O)O)NC(=O)[C@H](CO)NC(=O)[C@@H](NC(=O)[C@H](Cc1ccccc1)NC(=O)[C@@H](NC(=O)CNC(=O)[C@H](Cc1c[nH]cn1)NC(=O)[C@H](CO)NC(=O)CCc1c[nH]cn1)[C@@H](C)O)[C@@H](C)O)C(C)C)C(=O)N[C@@H](Cc1c[nH]c2ccccc12)C(=O)N[C@@H](CC(C)C)C(=O)N[C@@H](CC(C)C)C(=O)N[C@@H](CO)C(=O)N[C@H](C(=O)O)[C@@H](C)O)C(=O)O)C(=O)O)C(=O)O)C(=O)O [Example 8, N^ϵ24-[(4S)-4-[[(4S)-4-[[(4S)-4-[[(4S)-4-acetamido-4-carboxybutanoyl]amino]-4-carboxybutanoyl]amino]-4-carboxybutanoyl]amino]-4-carboxybutanoyl]-[Imp1, His3, Leu16, Glu21, Lys24, Leu27, Ser28]-Glucagon] (Desaminohistidyl-SHGTFTSDYSKYLDLRRAQEFVK([γGlu-γGlu-γGlu-γGlu-Ac])WLLST-OH)  103%
